Test results reported in publication PMC9395488, “First-in-human study of IM156, a novel potent biguanide oxidative phosphorylation (OXPHOS) inhibitor, in patients with advanced solid tumors” (Investigational New Drugs, 2022).

Test system: patients with advanced solid tumors
Experiment: First-in-human phase 1 dose-escalation study: safety, DLTs, adverse events
Type: in vivo
Description: This multicenter first-in-human dose-escalation phase 1 study (clinicaltrials.gov identifier: NCT03272256) was designed to determine the MTD or RP2D and to evaluate the safety and tolerability of IM156. Secondary endpoints included PK characteristics, efficacy assessment (objective response rate [ORR], disease control rate [DCR], duration of response [DoR] and progression-free survival [PFS]). Furthermore, exploratory objectives included identification and profiling of IM156 metabolites, evaluations of exploratory PD markers of IM156, and evaluations of any potential relationship between putative biomarkers and safety/efficacy parameters of IM156. The study was conducted in accordance with Good Clinical Practice, the International Council for Harmonisation, and guidelines governing clinical study conduct and the ethical principles originating from the Declaration of Helsinki. The study was approved by each Institutional Review Board and patients provided written informed consent. Patients were enrolled at three sites in South Korea.
The initial dose and schedule of IM156 was chosen based on animal toxicology studies. […] IM156 was administered in the fasted state, with no food for at least 2 h before and 1 h after dosing.
Three DLT-evaluable patients were enrolled at each dose level. If there were no DLTs or other prohibitive adverse events (AEs), the Safety Committee was allowed to recommend escalation to the next highest dose level. If 1 DLT occurred in the first 3 DLT-evaluable patients, enrollment in that cohort was expanded to an additional 3 DLT-evaluable patients; if ≥ 2 DLTs were reported in a cohort, that dose was considered above the MTD.
Safety was assessed through vital signs, weight, laboratory assessments, physical examinations, electrocardiogram, and reporting of AEs as graded by the National Cancer Institute’s Common Terminology Criteria for Adverse Events v4.03 (NCI-CTCAE).
DLTs were defined as the following AEs if they were attributed as related to IM156: asymptomatic grade 4 neutropenia lasting for ≥ 5 days; febrile neutropenia, regardless of grade; grade 4 thrombocytopenia or grade 3 thrombocytopenia with bleeding; any grade ≥ 3 non-hematologic AE (except grade 3 hypertension and grade 3 nausea, vomiting or diarrhea for which proper measures for prevention and treatment were not implemented, and alopecia); blood lactate levels > 5 mmol; grade ≥ 2 AE prohibiting dosing of IM156 for ≥ 21 continuous days except for alterations in serum calcium or phosphorus levels. The safety analysis includes all patients who received at least one dose of study drug.
The safety population was defined as all patients who received at least one dose of IM156. The PK population was not defined in the protocol but included all patients with sufficient PK data to perform adequate PK modeling. The efficacy population included all patients who underwent at least one tumor imaging assessment while receiving IM156. Safety was assessed using descriptive statistics (e.g., DLTs, AEs, laboratory tests, physical examination, 12-lead ECG). The incidence and number of events were reported for the DLTs observed in Cycle 1 per dose group. […] Adverse events and TRAEs were standardized with the System Organ Class and the Preferred Term using the Medical Dictionary for Regulatory Activities v23.0. In addition, TEAEs, serious adverse events (SAEs), TEAE severity, and TEAEs leading to withdrawal were presented by dose group. Efficacy data were to be presented by Waterfall and Swim Lane plots. Time to event endpoints (e.g., DoR, PFS) were determined using Kaplan–Meier estimations with the median value for each endpoint summarized.

[1] = DL3 400 mg orally every other day (n=3)
[2] = DL4 800 mg orally every other day (n=3)

Structure (SMILES): NC(=Nc1ccc(OC(F)(F)F)cc1)N=C(N)N1CCCC1 [IM156]
- TRAE Blood Lactic Acid increased, > G3 (patients) (DL3 400 mg QOD oral, N = 3): 0
- TRAE Blood Lactic Acid increased, All grades (patients) (DL3 400 mg QOD oral, N = 3): 0
- TRAE Constipation, > G3 (patients) (DL3 400 mg QOD oral, N = 3): 0
- TRAE Constipation, All grades (patients) (DL3 400 mg QOD oral, N = 3): 0
- TRAE Decreased appetite, > G3 (patients) (DL3 400 mg QOD oral, N = 3): 0
- TRAE Decreased appetite, All grades (patients) (DL3 400 mg QOD oral, N = 3): 0
- TRAE Diarrhoea, > G3 (patients) (DL3 400 mg QOD oral, N = 3): 0
- TRAE Diarrhoea, All grades (patients) (DL3 400 mg QOD oral, N = 3): 0
- TRAE Fatigue, > G3 (patients) (DL3 400 mg QOD oral, N = 3): 0
- TRAE Fatigue, All grades (patients) (DL3 400 mg QOD oral, N = 3): 0
- TRAE Insomnia, > G3 (patients) (DL3 400 mg QOD oral, N = 3): 0
- TRAE Insomnia, All grades (patients) (DL3 400 mg QOD oral, N = 3): 1
- TRAE Nausea, > G3 (patients) (DL3 400 mg QOD oral, N = 3): 0
- TRAE Nausea, All grades (patients) (DL3 400 mg QOD oral, N = 3): 3
- TRAE Vomiting, > G3 (patients) (DL3 400 mg QOD oral, N = 3): 0
- TRAE Vomiting, All grades (patients) (DL3 400 mg QOD oral, N = 3): 1
- TEAE Adrenal insufficiency grade 1 [1]: 0
- TEAE Adrenal insufficiency grade 2 [1]: 0
- TEAE Adrenal insufficiency grade 3 [1]: 0
- TEAE Adrenal insufficiency grade 4 [1]: 0
- TEAE Anaemia grade 1 [1]: 0
- TEAE Anaemia grade 2 [1]: 0
- TEAE Anaemia grade 3 [1]: 0
- TEAE Anaemia grade 4 [1]: 0
- TEAE Appendicitis perforated grade 1 [1]: 0
- TEAE Appendicitis perforated grade 2 [1]: 0
- TEAE Appendicitis perforated grade 3 [1]: 0
- TEAE Appendicitis perforated grade 4 [1]: 0
- TEAE Back pain grade 1 [1]: 0
- TEAE Back pain grade 2 [1]: 0
- TEAE Back pain grade 3 [1]: 0
- TEAE Back pain grade 4 [1]: 0
- TEAE Cystitis grade 1 [1]: 0
- TEAE Cystitis grade 2 [1]: 0
- TEAE Cystitis grade 3 [1]: 0
- TEAE Cystitis grade 4 [1]: 0
- TEAE Dry skin grade 1 [1]: 0
- TEAE Dry skin grade 2 [1]: 0
- TEAE Dry skin grade 3 [1]: 0
- TEAE Dry skin grade 4 [1]: 0
- TEAE Flank pain grade 1 [1]: 0
- TEAE Flank pain grade 2 [1]: 0
- TEAE Flank pain grade 3 [1]: 0
- TEAE Flank pain grade 4 [1]: 0
- TEAE Hypertension grade 1 [1]: 0
- TEAE Hypertension grade 2 [1]: 1
- TEAE Hypertension grade 3 [1]: 0
- TEAE Hypertension grade 4 [1]: 0
- TEAE Hypotension grade 1 [1]: 0
- TEAE Hypotension grade 2 [1]: 0
- TEAE Hypotension grade 3 [1]: 0
- TEAE Hypotension grade 4 [1]: 0
- TEAE Insomnia grade 1 [1]: 1
- TEAE Insomnia grade 2 [1]: 0
- TEAE Insomnia grade 3 [1]: 0
- TEAE Insomnia grade 4 [1]: 0
- TEAE Pain in extremity grade 1 [1]: 1
- TEAE Pain in extremity grade 2 [1]: 0
- TEAE Pain in extremity grade 3 [1]: 0
- TEAE Pain in extremity grade 4 [1]: 0
- TEAE Pruritus grade 1 [1]: 0
- TEAE Pruritus grade 2 [1]: 0
- TEAE Pruritus grade 3 [1]: 0
- TEAE Pruritus grade 4 [1]: 0
- TEAE Psychiatric disorders grade 1 [1]: 1
- TEAE Psychiatric disorders grade 2 [1]: 0
- TEAE Psychiatric disorders grade 3 [1]: 0
- TEAE Psychiatric disorders grade 4 [1]: 0
- TEAE Purpura grade 1 [1]: 0
- TEAE Purpura grade 2 [1]: 0
- TEAE Purpura grade 3 [1]: 0
- TEAE Purpura grade 4 [1]: 0
- TEAE Urinary retention grade 1 [1]: 0
- TEAE Urinary retention grade 2 [1]: 0
- TEAE Urinary retention grade 3 [1]: 0
- TEAE Urinary retention grade 4 [1]: 0
- TEAE Urinary tract disorder grade 1 [1]: 0
- TEAE Urinary tract disorder grade 2 [1]: 0
- TEAE Urinary tract disorder grade 3 [1]: 0
- TEAE Urinary tract disorder grade 4 [1]: 0
- TEAE Abdominal pain upper, grade 2 (DL4 800 mg QOD (n=3)): 1
- TEAE Abdominal pain, grade 1 (DL4 800 mg QOD (n=3)): 1
- TEAE Abdominal pain, grade 3 (DL4 800 mg QOD (n=3)): 1
- TEAE Asthenia, grade 1 (DL4 800 mg QOD (n=3)): 1
- TEAE Chest pain, grade 1 (DL4 800 mg QOD (n=3)): 1
- TEAE Constipation, grade 1 (DL4 800 mg QOD (n=3)): 1
- TEAE Constipation, grade 2 (DL4 800 mg QOD (n=3)): 1
- TEAE Cough, grade 1 (DL4 800 mg QOD (n=3)): 1
- TEAE Diarrhoea, grade 1 (DL4 800 mg QOD (n=3)): 3
- TEAE Fatigue, grade 1 (DL4 800 mg QOD (n=3)): 1
- TEAE Nausea, grade 1 (DL4 800 mg QOD (n=3)): 2
- TEAE Nausea, grade 2 (DL4 800 mg QOD (n=3)): 1
- TRAE Abdominal Pain, > G3 (patients) (DL4 800 mg QOD oral, N = 3): 0
- TRAE Abdominal Pain, All grades (patients) (DL4 800 mg QOD oral, N = 3): 1
- TRAE Blood Lactic Acid increased, > G3 (patients) (DL4 800 mg QOD oral, N = 3): 0
- TRAE Blood Lactic Acid increased, All grades (patients) (DL4 800 mg QOD oral, N = 3): 0
- TRAE Constipation, > G3 (patients) (DL4 800 mg QOD oral, N = 3): 0
- TRAE Constipation, All grades (patients) (DL4 800 mg QOD oral, N = 3): 0
- TRAE Decreased appetite, > G3 (patients) (DL4 800 mg QOD oral, N = 3): 0
- TRAE Decreased appetite, All grades (patients) (DL4 800 mg QOD oral, N = 3): 0
- TRAE Diarrhoea, > G3 (patients) (DL4 800 mg QOD oral, N = 3): 0
- TRAE Diarrhoea, All grades (patients) (DL4 800 mg QOD oral, N = 3): 3
- TRAE Fatigue, > G3 (patients) (DL4 800 mg QOD oral, N = 3): 0
- TRAE Fatigue, All grades (patients) (DL4 800 mg QOD oral, N = 3): 1
- TRAE Insomnia, > G3 (patients) (DL4 800 mg QOD oral, N = 3): 0
- TRAE Insomnia, All grades (patients) (DL4 800 mg QOD oral, N = 3): 0
- TRAE Nausea, > G3 (patients) (DL4 800 mg QOD oral, N = 3): 0
- TRAE Nausea, All grades (patients) (DL4 800 mg QOD oral, N = 3): 3
- TRAE Vomiting, > G3 (patients) (DL4 800 mg QOD oral, N = 3): 0
- TRAE Vomiting, All grades (patients) (DL4 800 mg QOD oral, N = 3): 0
- TEAE Adrenal insufficiency grade 1 [2]: 0
- TEAE Adrenal insufficiency grade 2 [2]: 0
- TEAE Adrenal insufficiency grade 3 [2]: 0
- TEAE Adrenal insufficiency grade 4 [2]: 0
- TEAE Anaemia grade 1 [2]: 0
- TEAE Anaemia grade 2 [2]: 0
- TEAE Anaemia grade 3 [2]: 0
